Assays:
[1] = test system: A549 cells; experiment: Transwell cell migration assay; format: cell-based; conditions: 1 μM
Experimental: (§1) Cell migration and invasion assays were performed in a transwell chamber (Corning, #3422) with a pore size of 8 μm. Cells were treated with different concentrations of ATA and Erlotinib for 48 h, then harvested and resuspended in a serum-free medium. Cells (1×10^4) were added to the upper side of the transwell chamber and fresh medium containing 10% FBS was added to the lower side. Cells were allowed to migrate from the upper side to the lower side of the chamber at 37° C. for 24 h. Membranes from the cell chamber were fixed with 4% paraformaldehyde for 20 min. The cells remaining on the upper side of the membrane were gently removed with a cotton swab and stained with 1% crystal violet for 20 min to stain the cells migrating to the other side of the transwell chamber. The membrane was then cut and fixed on a glass slide. The migrated cells on each slide were imaged with a Leica M165-FC microscope. For the transwell invasion assay, a Matrigel solution (Corning, #356230) was diluted to one-thirtieth with serum-free medium and applied to the upper side of the precoated chamber for 2 h, after the Matrigel had solidified, the cells were added to the upper side of the transwell chamber. The following procedure is identical to the migration assay. Migrated and invaded cells were quantified using ImageJ software.

[2] = test system: H1975 cells; experiment: Spheroid formation experiment, H1975 cells; format: cell-based; conditions: 2 μM, 0 to 8 days
Source text: The density of H1975 was 500 cells per well and the density of H1650 was 1000 cells per well in an ultra-low adhesion round bottom 96 well plate (Corning, #7007).

[3] = test system: EGFR; experiment: Western blot, EGFR protein levels in drug-resistant NSCLC cells; format: cell-based; conditions: A549 and H1650 cells, 2 μM, 48 h
Experimental: Cells were washed once with PBS and frozen in RIPA lysis buffer containing protease and phosphatase inhibitors (Sigma-Aldrich) for 30 min. After sonication and centrifugation, the total protein concentration was determined by protein assay using Bio-Rad concentrated dye reagent (Bio-Rad). Equal amounts of protein ([…]) from each sample were separated by SDS-PAGE and electrotransferred to nitrocellulose membranes (GE Healthcare). Detection was performed on the membrane with a 1:1000 dilution of specific primary antibody followed by incubation with a 1:2000 dilution of the HRP conjugated secondary antibody. Finally, immunoreactivity is detected with a chemiluminescent substrate (Clarity Western ECL substrate; Bio-Rad). […] Aurora A (#ab13824) and PLK1 (#ab189139) antibodies were from Abcam.

[4] = test system: A549 cell-derived xenograft tumors; experiment: Mouse xenograft study; format: in vivo, nude mice; conditions: 25 mg/kg intraperitoneally every 3 days, day 31
Experimental: (§2) Cell line xenograft experiments were performed in 6-week-old female nude mice, 4×10^6 A549 cells were mixed 1:1 with matrigel-basement membrane matrix (Corning) and injected subcutaneously into nude mice. Tumors were allowed to grow to around […] and mice were randomly selected to receive treatment with ATA (25 mg/kg) or Erlotinib (25 mg/kg) intraperitoneally every 3 days for 31 days. ATA was formulated with 25% ethanol, 60% PEG300 (Sigma-Aldrich), and 15% Tween 80 (Sigma-Aldrich). Erlotinib was formulated in 5% DMSO, 30% PEG300, 5% Tween 80 and 60% H2O. Mouse body weight and tumor volume were measured every 3 days by a scale and caliper. Tumor volume (mm^3) was calculated using the formula. π/6×length (mm)×[width (mm)]^2. At least 6 mice in the control and treatment groups were evaluated during the study. All mice were sacrificed after 31 days of drug treatment, tumors were collected, and tumor weights were recorded. All animal studies were conducted in accordance with the requirements of the Animal Research Ethics Committee of Macao University and in compliance with all relevant ethical requirements.
(§3) To determine if ATA could also produce the same effect in vivo, this example injected A549 cells subcutaneously into nude mice to form tumor xenografts. Mice were randomly assigned to three groups. When the size of each tumor increased to a volume of approximately 100 mm^3, mice were injected intraperitoneally with vehicle control, ATA (25 mg/kg), or Erlotinib (25 mg/kg) every 3 days for 31 days. The tumor size and body weight of each mouse were measured every 3 days until the end of the animal experiment on day 31.

[5] = test system: drug-resistant NSCLC cells (A549, H358, H1975, H1650); experiment: MTT assay, summary over all four cell lines; format: cell-based; conditions: A549, H358, H1975, H1650; MTT, 72 h; read-out: IC50 values, range over the four cell lines
Experimental: (§4) Cells were seeded at a density of 3×10^3 per well in 96-well plates, allowed to attach overnight, and treated with various concentrations of agent. After 72 h of treatment, 10 μL of MTT solution (5 mg/mL) was added to each well and cultured in the plate for 4 h. The crystallized formazan was dissolved in 100 μL of 10% (w/v) SDS and 0.01 mol/L HCl solution for 24 h, and then the value was read by spectrophotometry at 595 nm using a microplate reader.

[6] = test system: H358 cells; experiment: MTT cell viability assay, H358 cells; format: cell-based; conditions: Homo sapiens, NCI-H358, MTT, 72 h
Experimental: as §4

[7] = test system: A549 cells; experiment: Transwell Matrigel invasion assay; format: cell-based; conditions: 1 μM
Experimental: as §1

[8] = Body weight, deaths and toxicity in the xenograft study; conditions: 25 mg/kg intraperitoneally every 3 days for 31 days
Experimental: as §2, §3

[9] = test system: A549 cells; experiment: MTT cell viability assay, A549 cells; format: cell-based; conditions: Homo sapiens, MTT, 72 h
Experimental: as §4

[10] = test system: H1650 cells; experiment: Spheroid formation experiment, H1650 cells; conditions: 2 μM, 0 to 8 days
[11] = test system: H1650 cells; experiment: MTT cell viability assay, H1650 cells; format: cell-based; conditions: Homo sapiens, NCI-H1650, MTT, 72 h
Experimental: as §4

[12] = test system: H1975 cells; experiment: MTT cell viability assay, H1975 cells; format: cell-based; conditions: Homo sapiens, NCI-H1975, MTT, 72 h
Experimental: as §4

[13] = target: T1, p70S6K (Homo sapiens, UniProt P23443); experiment: Western blot, p70S6K protein levels in drug-resistant NSCLC cells; format: cell-based; conditions: A549 and H1650 cells, 2 μM, 48 h
T1 construct: endogenous in cells; host or cells: A549, H358, H1975, H1650 for the Western blots
Experimental: Cells were washed once with PBS and frozen in RIPA lysis buffer containing protease and phosphatase inhibitors (Sigma-Aldrich) for 30 min. After sonication and centrifugation, the total protein concentration was determined by protein assay using Bio-Rad concentrated dye reagent (Bio-Rad). Equal amounts of protein ([…]) from each sample were separated by SDS-PAGE and electrotransferred to nitrocellulose membranes (GE Healthcare). Detection was performed on the membrane with a 1:1000 dilution of specific primary antibody followed by incubation with a 1:2000 dilution of the HRP conjugated secondary antibody. Finally, immunoreactivity is detected with a chemiluminescent substrate (Clarity Western ECL substrate; Bio-Rad). EGFR (#4267S), MET (#8198S), p-Akt (#9271L), akt (#9272S), p-mTOR (#5536S), mTOR (#2983S), p-p70S6K (#9234S), p70S6K (#2708S), p-S6RP (#4857S), S6RP (#2217S), p-4E-BP1 (#9455S) antibodies. 4E-BP1 (#9644S), p53 (#2527S), p21 waf1/Cip1 (#2947S), survivin (#2808S), cyclin B1 (#12231S), cyclin D3 (#2936S) and GAPDH (#2118S) were purchased from Cell Signaling Technology. Aurora A (#ab13824) and PLK1 (#ab189139) antibodies were from Abcam.

[14] = test system: A549 and H1650 cells; experiment: Protein synthesis rate (click-iT HPG Alexa Fluor 594 Protein Synthesis Assay Kit); format: cell-based; conditions: 2 μM, 48 h
Experimental: In FIG. 3 (A) is protein levels of p-Akt, Akt, p-mTOR, mTOR, p-p70S6K, p70S6K, p-S6RP, and S6RP determined by Western blot analysis for A549, H358, H1975, and H1650 cells treated with ATA (1 or 2 μM) for 48 h. (B) is A549 and H1650 cells treated with ATA (1 or 2 μM) or the protein synthesis inhibitor […] (CHX, 35 μM), respectively, for 48 h. The rate of protein synthesis was determined using the click-iT™ HPG Alexa Fluor™ 594 Protein Synthesis Assay Kit. The intensity of Texas Red fluorescence in the stained image represents the rate of protein synthesis. Quantification of the rate of protein synthesis is shown. ****P<0.0001 was based on a one-way analysis of variance followed by Tukey's multiple comparison test. Scale bar, 50 μm. […] Protein levels of p-p70S6K. p70S6K. p-S6RP, and S6RP were determined by Western blot analysis. […] The rate of protein synthesis was determined using the click-iT™ HPG Alexa Fluor™ 594 Protein Synthesis Assay Kit. The intensity of Texas Red fluorescence in the stained image represents the rate of protein synthesis. Quantification of the rate of protein synthesis is shown. *P<0.05 and **P<0.01 were based on a one-way analysis of variance followed by Tukey's multiple comparison test. […] Protein levels of p70S6K. p-p70S6K, S6RP, and p-S6RP were determined by Western blot analysis. […] Data are expressed as the mean±SD of three independent experiments.

T1 sequence (P23443 whole entry): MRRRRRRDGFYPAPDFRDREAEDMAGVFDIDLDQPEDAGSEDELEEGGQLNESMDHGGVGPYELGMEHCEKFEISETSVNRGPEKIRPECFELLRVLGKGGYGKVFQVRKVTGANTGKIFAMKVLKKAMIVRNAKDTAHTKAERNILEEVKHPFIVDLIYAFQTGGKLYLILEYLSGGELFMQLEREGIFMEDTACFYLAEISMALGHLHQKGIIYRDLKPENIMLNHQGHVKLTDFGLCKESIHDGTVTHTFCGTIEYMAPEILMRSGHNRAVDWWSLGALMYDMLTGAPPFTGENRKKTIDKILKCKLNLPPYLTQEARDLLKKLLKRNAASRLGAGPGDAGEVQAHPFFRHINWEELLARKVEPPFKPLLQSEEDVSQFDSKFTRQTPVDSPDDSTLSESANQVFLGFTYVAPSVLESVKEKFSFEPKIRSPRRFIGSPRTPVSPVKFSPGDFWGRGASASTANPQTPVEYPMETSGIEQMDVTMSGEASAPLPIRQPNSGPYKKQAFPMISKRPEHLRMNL

C#Cc1cccc(Nc2ncnc3cc(OCCOC)c(OCCOC)cc23)c1 [Erlotinib, reference compound]
reduction of migration ability [1]: did not
spheroid growth / sphere size [2]: did not decrease but significantly increased
protein levels of EGFR [3]: significantly increased
reduction of tumor size compared to the control group [4]: 32.5%
reduction of tumor weight [4]: did not significantly reduce
IC50 [5]: 10 to 22 µM
IC50 [6]: 21.5 ± 1.47 µM
reduction of invasion ability [7]: did not
deaths during the treatment period [8]: no mice died
weight of nude mice compared between groups [8]: no difference
IC50 [9]: 19.6 ± 0.28 µM
spheroid growth / sphere size [10]: less inhibition in H1650 cells than ATA
IC50 [11]: 22.1 ± 0.59 µM
IC50 [12]: 10.6 ± 1.27 µM

CCc1cncnc1N1CCN(Cc2nc3ccc(C(F)(F)F)cc3[nH]2)CC1 [PF-4708671, reference compound]
levels of p70S6K [13]: did not decrease
reduction (inhibition ratio) of protein synthesis [14]: did not affect

CO[C@H]1C[C@@H]2CC[C@@H](C)[C@@](O)(O2)C(=O)C(=O)N2CCCC[C@H]2C(=O)O[C@H]([C@H](C)C[C@@H]2CC[C@@H](O)[C@H](OC)C2)CC(=O)[C@H](C)/C=C(\C)[C@@H](O)[C@@H](OC)C(=O)[C@H](C)C[C@H](C)/C=C/C=C/C=C/1C [Rapamycin, rapamycin]
reduction (inhibition ratio) of protein synthesis [14]: 25-28%

Reference: patent US20240050449A1, “Use of Acetyltanshinone IIA in Preparation of Medicament for Treating Lung Cancer and Medicament for Treating Lung Cancer” (UNIVERSITY OF MACAU, priority 2022, published 2024)
